One assay concerns LNCaP. Put plainly: Cytotoxicity against human LNCaP cells assessed as reduction in cell viability incubated for 72 hrs by MTT assay. Format: functional, cell-based.
In another assay the test system is HepG2. Put plainly: Cytotoxicity against human HepG2 cells assessed as reduction in cell viability at low concentration incubated for 72 hrs by MTT assay. The class given is functional, cell-based.
The target of assay [1] is T1, Androgen receptor (Homo sapiens) (UniProt P10275).
T1 sequence (whole entry): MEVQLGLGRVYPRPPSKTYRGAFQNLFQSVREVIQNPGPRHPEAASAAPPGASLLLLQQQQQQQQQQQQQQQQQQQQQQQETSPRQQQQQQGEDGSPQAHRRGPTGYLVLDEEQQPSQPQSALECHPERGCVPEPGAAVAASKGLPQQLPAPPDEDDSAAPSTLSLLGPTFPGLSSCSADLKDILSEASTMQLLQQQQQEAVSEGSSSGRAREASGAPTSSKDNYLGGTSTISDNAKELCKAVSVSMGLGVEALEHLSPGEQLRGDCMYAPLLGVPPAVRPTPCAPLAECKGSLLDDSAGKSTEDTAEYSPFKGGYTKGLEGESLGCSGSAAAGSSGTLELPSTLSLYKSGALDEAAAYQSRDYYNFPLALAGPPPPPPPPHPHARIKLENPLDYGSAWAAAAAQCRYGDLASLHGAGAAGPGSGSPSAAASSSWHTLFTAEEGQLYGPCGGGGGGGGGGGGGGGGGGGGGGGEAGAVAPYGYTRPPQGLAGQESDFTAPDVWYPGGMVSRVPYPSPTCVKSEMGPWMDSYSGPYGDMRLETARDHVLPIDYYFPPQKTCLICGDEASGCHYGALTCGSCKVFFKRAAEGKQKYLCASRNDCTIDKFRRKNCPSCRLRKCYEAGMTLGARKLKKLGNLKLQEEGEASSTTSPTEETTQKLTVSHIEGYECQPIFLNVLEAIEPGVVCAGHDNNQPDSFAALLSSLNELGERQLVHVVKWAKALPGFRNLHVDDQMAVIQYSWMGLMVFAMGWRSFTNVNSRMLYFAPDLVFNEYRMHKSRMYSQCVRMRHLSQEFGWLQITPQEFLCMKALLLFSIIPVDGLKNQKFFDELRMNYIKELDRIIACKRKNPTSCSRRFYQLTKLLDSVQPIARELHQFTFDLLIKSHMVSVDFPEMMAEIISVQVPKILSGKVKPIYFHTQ
In words: Antagonist activity at androgen receptor in human LNCaP cells assessed as reduction in DHT-induced PSA mRNA expression after 48 hrs by SYBR green dye based qPCR analysis. The class given is cell-based. Conditions: filed as antagonist, dose 0.1-10 µM.

The target of assay [2] is T2, Progesterone receptor (Homo sapiens) (UniProt P06401).
T2 sequence (whole entry): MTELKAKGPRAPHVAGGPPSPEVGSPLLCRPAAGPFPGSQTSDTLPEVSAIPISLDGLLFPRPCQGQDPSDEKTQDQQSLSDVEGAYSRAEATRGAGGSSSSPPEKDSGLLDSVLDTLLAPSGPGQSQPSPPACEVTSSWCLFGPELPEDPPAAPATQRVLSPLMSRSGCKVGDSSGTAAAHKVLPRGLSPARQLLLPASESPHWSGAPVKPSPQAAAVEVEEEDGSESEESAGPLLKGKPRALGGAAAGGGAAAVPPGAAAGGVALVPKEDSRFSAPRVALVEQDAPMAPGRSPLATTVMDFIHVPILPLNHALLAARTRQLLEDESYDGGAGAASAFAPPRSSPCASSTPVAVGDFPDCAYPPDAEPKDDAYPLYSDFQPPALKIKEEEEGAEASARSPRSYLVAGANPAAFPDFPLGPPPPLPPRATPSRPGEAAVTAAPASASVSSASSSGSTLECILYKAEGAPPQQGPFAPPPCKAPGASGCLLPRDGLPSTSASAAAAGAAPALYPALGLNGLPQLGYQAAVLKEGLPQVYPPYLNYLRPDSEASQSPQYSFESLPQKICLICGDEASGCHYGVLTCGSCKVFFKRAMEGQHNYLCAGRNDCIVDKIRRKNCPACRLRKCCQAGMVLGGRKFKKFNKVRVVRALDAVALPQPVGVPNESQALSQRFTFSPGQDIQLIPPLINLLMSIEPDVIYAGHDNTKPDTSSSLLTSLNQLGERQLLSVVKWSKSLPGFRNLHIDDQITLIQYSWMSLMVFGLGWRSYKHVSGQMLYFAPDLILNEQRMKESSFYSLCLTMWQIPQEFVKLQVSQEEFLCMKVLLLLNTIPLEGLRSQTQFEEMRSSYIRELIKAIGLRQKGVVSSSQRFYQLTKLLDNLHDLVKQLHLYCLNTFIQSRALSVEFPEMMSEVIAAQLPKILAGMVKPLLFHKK
In words: Agonist activity at progesterone receptor in human HEK293T cells by dual-Glo luciferase assay. Format: cell-based.

In assay [3] the target is T1, Androgen receptor (Homo sapiens). In words: Antagonist activity at androgen receptor in human LNCaP cells assessed as reduction in DHT-induced secreted PSA level. Format: cell-based. Particulars: filed as antagonist, dose 0.1-10 µM, time 48.0 hrs.
The next assay has as its system HeLa. Put plainly: Cytotoxicity against human HeLa cells assessed as reduction in cell viability at 50 uM incubated for 72 hrs by MTT assay. The class given is functional, cell-based.
Another assay addresses T3, Glucocorticoid receptor (Homo sapiens, UniProt P04150).
T3 sequence (P04150 whole entry): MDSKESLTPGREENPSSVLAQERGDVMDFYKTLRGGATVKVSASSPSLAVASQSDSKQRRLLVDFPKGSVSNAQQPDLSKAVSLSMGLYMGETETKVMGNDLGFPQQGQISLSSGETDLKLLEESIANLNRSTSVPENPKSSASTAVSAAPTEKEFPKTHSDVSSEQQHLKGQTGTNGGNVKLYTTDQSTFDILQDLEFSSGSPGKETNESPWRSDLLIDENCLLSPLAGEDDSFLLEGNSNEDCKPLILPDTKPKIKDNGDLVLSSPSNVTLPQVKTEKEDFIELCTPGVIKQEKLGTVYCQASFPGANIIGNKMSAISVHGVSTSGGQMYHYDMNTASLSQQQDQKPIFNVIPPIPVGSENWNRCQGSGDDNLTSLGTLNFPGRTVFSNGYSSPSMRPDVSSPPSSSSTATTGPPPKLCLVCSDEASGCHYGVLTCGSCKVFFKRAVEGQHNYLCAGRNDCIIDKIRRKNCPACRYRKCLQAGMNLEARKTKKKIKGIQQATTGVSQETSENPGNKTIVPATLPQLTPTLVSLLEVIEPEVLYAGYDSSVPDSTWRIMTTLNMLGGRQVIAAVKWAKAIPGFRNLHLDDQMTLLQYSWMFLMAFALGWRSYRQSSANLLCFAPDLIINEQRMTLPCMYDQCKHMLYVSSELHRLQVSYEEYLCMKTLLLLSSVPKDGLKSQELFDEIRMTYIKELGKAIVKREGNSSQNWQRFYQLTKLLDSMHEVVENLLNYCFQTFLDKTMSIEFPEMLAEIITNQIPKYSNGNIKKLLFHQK
In words: Antagonist activity at glucocorticoid receptor in human HeLa cells assessed as reduction in dexamethasone-induced luciferase activity by dual-Glo luciferase assay. The class given is cell-based.

In assay [4] the target is T1, Androgen receptor (Homo sapiens). In words: Antagonist activity at androgen receptor in human LNCaP cells assessed as reduction in DHT-induced TMPRSS2 mRNA expression after 48 hrs by SYBR green dye based qPCR analysis. Format: cell-based. Conditions: filed as antagonist, dose 0.1-10 µM.

Experimental findings from ChEMBL document CHEMBL5055679, “Discovery of a Novel Androgen Receptor Antagonist Manifesting Evidence to Disrupt the Dimerization of the Ligand-Binding Domain via Attenuating the Hydrogen-Bonding Network Between the Two Monomers” (J Med Chem, 2021) are described below.

The source made the active and inactive calls. The rule behind the calls is not given here. A value given as a limit tells only on which side of the number the result lay.

Consider `O=c1cc(C(F)(F)F)c2ccc(OCc3ccc(Br)cc3)cc2o1`, for which the outcome in the assay on LNCaP and with HeLa was Active. The outcome (in the assay with HepG2; in assay [2]) was inactive. Moreover, the Activity entry in assay [1], in assay [3] and in assay [4] was “Dose-dependent effect” each time. The concentration for half-maximal inhibition (IC50) on Glucocorticoid receptor was > 10 µM.
